In ChEMBL document CHEMBL1201862, “PubChem BioAssay data set” (2004):
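Results reflect a 48-hour exposure of cells in 96-well plates to compound at five concentrations. GI50 = concentration required for 50% inhibition of growth.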 The source made the active and inactive calls. No stated cut-off is given here; in the data, active = GI50 up to about 1.1 µM and inactive = higher.

How the values were obtained:
Assay in all cases: NCI-60 cell line screen, 48 h
SK-MEL-2 = system: SK-MEL-2
SF-539 = system: SF-539
UACC-62 = system: UACC-62
LXFL 529 = system: LXFL 529
HCT-116 = system: HCT-116
RPMI-8226 = system: RPMI-8226
SK-OV-3 = system: SK-OV-3
SNB-78 = system: SNB-78
HOP-62 = system: HOP-62
NCI-H23 = system: NCI-H23
CCRF-CEM = system: CCRF-CEM
MOLT-4 = system: MOLT-4
UO-31 = system: UO-31
IGROV-1 = system: IGROV-1
DLD-1 = system: DLD-1
RXF 393 = system: RXF 393
SNB-75 = system: SNB-75
HL-60 = system: HL-60
M14 = system: M14
HOP-92 = system: HOP-92
SNB-19 = system: SNB-19
HT-29 = system: HT-29
U-251 = system: U-251
HCT-15 = system: HCT-15
SF-268 = system: SF-268
NCI-H522 = system: NCI-H522
NCI-H460 = system: NCI-H460
786-0 = system: 786-0
A498 = system: A498
M19-MEL = system: M19-MEL
OVCAR-5 = system: OVCAR-5
KM12 = system: KM12
KM-20L2 = system: KM-20L2
SF-295 = system: SF-295
RXF 631 = system: RXF 631
DMS-114 = system: DMS-114
COLO 205 = system: COLO 205
OVCAR-3 = system: OVCAR-3
K562 = system: K562
HCC 2998 = system: HCC 2998
OVCAR-4 = system: OVCAR-4
DMS-273 = system: DMS-273
NCI-H226 = system: NCI-H226
LOX IMVI = system: LOX IMVI
ACHN = system: ACHN
SK-MEL-28 = system: SK-MEL-28
SN12C = system: SN12C
CAKI-1 = system: CAKI-1
HOP-18 = system: HOP-18
EKVX = system: EKVX
Malme-3M = system: Malme-3M
TK-10 = system: TK-10
OVCAR-8 = system: OVCAR-8
UACC-257 = system: UACC-257
SR = system: SR
A549 = system: A549
SW-620 = system: SW-620
SK-MEL-5 = system: SK-MEL-5

Measured: GI50

N#Cc1ccc2cc3c(cc2c1)OCO3
> 100 µM: HCT-15
inactive: SK-MEL-2 > 100 µM | SF-539 27 µM | UACC-62 > 100 µM | LXFL 529 > 100 µM | HCT-116 91 µM | RPMI-8226 54.5 µM | SK-OV-3 > 100 µM | SNB-78 > 100 µM | HOP-62 > 100 µM | NCI-H23 > 100 µM | CCRF-CEM > 100 µM | MOLT-4 49.2 µM | UO-31 21.5 µM | IGROV-1 > 100 µM | DLD-1 > 100 µM | RXF 393 61.5 µM | SNB-75 26 µM | HL-60 77.1 µM | M14 > 100 µM | HOP-92 35.6 µM | SNB-19 50.7 µM | HT-29 > 100 µM | U-251 80.2 µM | SF-268 > 100 µM | NCI-H522 > 100 µM | NCI-H460 > 100 µM | 786-0 > 100 µM | A498 28.4 µM | M19-MEL > 100 µM | OVCAR-5 76.6 µM | KM12 > 100 µM | KM-20L2 > 100 µM | SF-295 > 100 µM | RXF 631 > 100 µM | DMS-114 > 100 µM | COLO 205 > 100 µM | OVCAR-3 > 100 µM | K562 89.5 µM | HCC 2998 > 100 µM | OVCAR-4 > 100 µM | DMS-273 95.5 µM | NCI-H226 39.4 µM | LOX IMVI > 100 µM | ACHN 59.3 µM | SK-MEL-28 > 100 µM | SN12C > 100 µM

N#CCCN(CCC#N)c1ccc(/C=C(/NC(=O)c2cc([N+](=O)[O-])ccc2Cl)C(=O)N=[N+]=[N-])cc1
inactive: CAKI-1 > 100 µM | SK-MEL-2 > 100 µM | SF-539 > 100 µM | UACC-62 > 100 µM | HOP-18 > 100 µM | LXFL 529 > 100 µM | HCT-116 > 100 µM | RPMI-8226 > 100 µM | SK-OV-3 > 100 µM | EKVX > 100 µM | SNB-78 > 100 µM | HOP-62 > 100 µM | NCI-H23 > 100 µM | CCRF-CEM > 100 µM | Malme-3M > 100 µM | MOLT-4 > 100 µM | UO-31 > 100 µM | IGROV-1 > 100 µM | DLD-1 > 100 µM | RXF 393 > 100 µM | SNB-75 > 100 µM | HL-60 > 100 µM | M14 > 100 µM | SNB-19 > 100 µM | TK-10 > 100 µM | HT-29 > 100 µM | U-251 > 100 µM | SF-268 > 100 µM | OVCAR-8 > 100 µM | UACC-257 > 100 µM | NCI-H522 > 100 µM | NCI-H460 > 100 µM | SR > 100 µM | A549 > 100 µM | 786-0 > 100 µM | A498 > 100 µM | M19-MEL > 100 µM | OVCAR-5 > 100 µM | KM12 > 100 µM | KM-20L2 > 100 µM | SF-295 > 100 µM | RXF 631 > 100 µM | DMS-114 > 100 µM | SW-620 > 100 µM | COLO 205 > 100 µM | OVCAR-3 > 100 µM | K562 > 100 µM | HCC 2998 > 100 µM | OVCAR-4 > 100 µM | DMS-273 > 100 µM | NCI-H226 > 100 µM | LOX IMVI > 100 µM | ACHN > 100 µM | SK-MEL-28 > 100 µM | SN12C > 100 µM | SK-MEL-5 > 100 µM
> 100 µM: HCT-15
